What was measured:
[1] = Prior study of 50 mg and 100 mg CPA: discontinuation rates; assay type: in vivo, human
Protocol: The results of this study were compared with results from a prior study in which the efficacy of 50 mg and 100 mg of CPA was investigated. Efficacy data for the 50 mg and 100 mg studies showing a reduction in average daily number of moderate to severe hot flashes, and a reduction in average severity of hot flashes is shown in FIGS. 6 and 7, respectively. A comparison of the percent of patients with complete disappearance of all hot flashes at 12 weeks of treatment across studies is shown in Table 10.

[2] = test system: hot flashes; details: 37 subjects with bothersome hot flashes; cited from earlier work
[3] = over 2500 patients, long-term use; men 100 to 200 or more than 200 mg/day; cited from earlier work
[4] = Same Phase 2 trial: cyproterone acetate and 15β-OH cyproterone acetate concentrations by treatment and visit; assay type: in vivo, human; details: 5 mg/day, 15 mg/day and 25 mg/day
Protocol: FIG. 3 depicts schematically the analysis of cyproterone acetate and 15β-OH cyproterone acetate (a breakdown product of cyproterone acetate that contributes to the effectiveness of the drug) concentration in the patients who were treated.

[5] = Same Phase 2 trial: adverse events and discontinuation; assay type: in vivo, human
Text: The overall study duration for each subject was approximately 19 weeks, which included a screening period of up to 4 weeks, a one-week placebo run-in period, a 12-week double-blind period, and a follow-up telephone call two weeks after the last dose of study medication.
After providing informed consent on the first day of the screening period, all subjects had medical and hot flash history recorded, a physical examination, a chest x-ray and Doppler to assess known thromboembolic risk factors, an ECG to evaluate cardiac risks, and clinical laboratory evaluations. Once all results of tests conducted during the screening period were obtained, subjects who met all of the inclusion criteria and none of the exclusion criteria were eligible to enter the one-week, single-blind, placebo run-in period. […] After beginning study medication, subjects returned for study visits at weeks 2, 4, 8, and 12. Two weeks after the final treatment visit, a telephone follow-up call was conducted to record and evaluate adverse events (“AE”s) since the last study visit.

[6] = test system: hot flashes and outbreaks of sweating after orchiectomy; details: CPA 150 mg daily, cited from earlier work

With `CC(=O)O[C@]1(C(C)=O)CC[C@H]2[C@@H]3C=C(Cl)C4=CC(=O)[C@@H]5C[C@@H]5[C@]4(C)[C@H]3CC[C@@]21C` [CPA, cyproterone acetate] the “12-week double-blind discontinuation due to Adverse Event, number” value (“12-week double-blind discontinuation due” for short) ([1]; CPA 50 mg (N = 246)) was 13, the “12-week double-blind discontinuation rate due to Adverse Event” value ([1]; CPA 50 mg (N = 246)) was “(5.3%)” and the “12-week double-blind discontinuation due” value ([1]; CPA 100 mg (N = 245)) was 24. The “12-week double-blind discontinuation rate due to Adverse Event” value ([1]; CPA 100 mg (N = 245)) was “(9.8%)”, the “Therapeutic efficacy: reduction in hot flashes” value [2] was 80% and the “Correlation between duration of CPA treatment and prevalence of liver enzyme elevations” value [3] was “No correlation was found”. The “Cyproterone acetate and 15β-OH cyproterone acetate concentration in treated patients” value [4] was “dose proportional response”, the “12-week double-blind discontinuation due” value ([5]; CPA 5 mg (N = 81)) was 2 and the “12-week double-blind discontinuation rate due to Adverse Event” value ([5]; CPA 5 mg (N = 81)) was “(2.5%)”. For the same molecule, the “Treatment-emergent AE Constipation, %” value ([5]; CPA 5 mg (N = 81)) was 0.00%, the “Treatment-emergent AE Depression, %” value ([5]; CPA 5 mg (N = 81)) was 1.23% and the “Treatment-emergent AE Diarrhoea, %” value ([5]; CPA 5 mg (N = 81)) was 2.47%. The “Treatment-emergent AE Dizziness, %” value ([5]; CPA 5 mg (N = 81)) was 2.47%, the “Treatment-emergent AE Dyspnoea, %” value ([5]; CPA 5 mg (N = 81)) was 3.70% and the “Treatment-emergent AE Fatigue, %” value ([5]; CPA 5 mg (N = 81)) was 1.23%. For the same molecule, the “Treatment-emergent AE Headache, %” value ([5]; CPA 5 mg (N = 81)) was 3.70%, the “Treatment-emergent AE Influenza, %” value ([5]; CPA 5 mg (N = 81)) was 0.00% and the “Treatment-emergent AE Nasopharyngitis, %” value ([5]; CPA 5 mg (N = 81)) was 3.70%. The “Treatment-emergent AE Nausea, %” value ([5]; CPA 5 mg (N = 81)) was 0.00%, the “Treatment-emergent AE Oedema peripheral, %” value ([5]; CPA 5 mg (N = 81)) was 1.23% and the “Treatment-emergent AE Pain in extremity, %” value ([5]; CPA 5 mg (N = 81)) was 3.70%. For the same molecule, the “Treatment-emergent AE Urinary tract infection, %” value ([5]; CPA 5 mg (N = 81)) was 1.23%, the “Treatment-emergent AE Vomiting, %” value ([5]; CPA 5 mg (N = 81)) was 1.23% and the “Treatment-related AE Constipation, %” value ([5]; CPA 5 mg (N = 81)) was 0.00%. For the same molecule, the “Treatment-related AE Dyspnoea, %” value ([5]; CPA 5 mg (N = 81)) was 0.00%, the “Proportion of subjects experiencing treatment-emergent AEs, rank among groups” value ([5]; CPA 5 mg/day vs placebo, 15 and 25 mg/day) was “fewest proportion of subjects” and the “12-week double-blind discontinuation due” value ([5]; CPA 15 mg (N = 99)) was 5. For the same molecule, the “12-week double-blind discontinuation rate due to Adverse Event” value ([5]; CPA 15 mg (N = 99)) was “(5.1%)”, the “Treatment-emergent AE Constipation, %” value ([5]; CPA 15 mg (N = 99)) was 6.06% and the “Treatment-emergent AE Depression, %” value ([5]; CPA 15 mg (N = 99)) was 4.04%. For the same molecule, the “Treatment-emergent AE Diarrhoea, %” value ([5]; CPA 15 mg (N = 99)) was 6.06%, the “Treatment-emergent AE Dizziness, %” value ([5]; CPA 15 mg (N = 99)) was 7.07% and the “Treatment-emergent AE Dyspnoea, %” value ([5]; CPA 15 mg (N = 99)) was 7.07%. The “Treatment-emergent AE Fatigue, %” value ([5]; CPA 15 mg (N = 99)) was 6.06%, the “Treatment-emergent AE Gynaecomastia, %” value ([5]; CPA 15 mg (N = 99)) was 2.02% and the “Treatment-emergent AE Headache, %” value ([5]; CPA 15 mg (N = 99)) was 2.02%. For the same molecule, the “Treatment-emergent AE Influenza, %” value ([5]; CPA 15 mg (N = 99)) was 1.01%, the “Treatment-emergent AE Nasopharyngitis, %” value ([5]; CPA 15 mg (N = 99)) was 3.03% and the “Treatment-emergent AE Nausea, %” value ([5]; CPA 15 mg (N = 99)) was 2.02%. For the same molecule, the “Treatment-emergent AE Oedema peripheral, %” value ([5]; CPA 15 mg (N = 99)) was 1.01%, the “Treatment-emergent AE Pain in extremity, %” value ([5]; CPA 15 mg (N = 99)) was 3.03% and the “Treatment-emergent AE Urinary tract infection, %” value ([5]; CPA 15 mg (N = 99)) was 0.00%. The “Treatment-emergent AE Vomiting, %” value ([5]; CPA 15 mg (N = 99)) was 0.00%, the “Treatment-related AE Constipation, %” value ([5]; CPA 15 mg (N = 99)) was 2.02% and the “Treatment-related AE Dyspnoea, %” value ([5]; CPA 15 mg (N = 99)) was 4.04%. For the same molecule, the “12-week double-blind discontinuation due” value ([5]; CPA 25 mg (N = 87)) was 7, the “12-week double-blind discontinuation rate due to Adverse Event” value ([5]; CPA 25 mg (N = 87)) was “(8.0%)” and the “Treatment-emergent AE Constipation, %” value ([5]; CPA 25 mg (N = 87)) was 3.45%. The “Treatment-emergent AE Depression, %” value ([5]; CPA 25 mg (N = 87)) was 1.15%, the “Treatment-emergent AE Diarrhoea, %” value ([5]; CPA 25 mg (N = 87)) was 3.45% and the “Treatment-emergent AE Dizziness, %” value ([5]; CPA 25 mg (N = 87)) was 4.60%. The “Treatment-emergent AE Dyspnoea, %” value ([5]; CPA 25 mg (N = 87)) was 8.05%, the “Treatment-emergent AE Fatigue, %” value ([5]; CPA 25 mg (N = 87)) was 1.15% and the “Treatment-emergent AE Gynaecomastia, %” value ([5]; CPA 25 mg (N = 87)) was 4.60%. The “Treatment-emergent AE Headache, %” value ([5]; CPA 25 mg (N = 87)) was 3.45%, the “Treatment-emergent AE Influenza, %” value ([5]; CPA 25 mg (N = 87)) was 3.45% and the “Treatment-emergent AE Nasopharyngitis, %” value ([5]; CPA 25 mg (N = 87)) was 5.75%. The “Treatment-emergent AE Nausea, %” value ([5]; CPA 25 mg (N = 87)) was 2.30%, the “Treatment-emergent AE Oedema peripheral, %” value ([5]; CPA 25 mg (N = 87)) was 5.75% and the “Treatment-emergent AE Pain in extremity, %” value ([5]; CPA 25 mg (N = 87)) was 0.00%. The “Treatment-emergent AE Urinary tract infection, %” value ([5]; CPA 25 mg (N = 87)) was 3.45%, the “Treatment-emergent AE Vomiting, %” value ([5]; CPA 25 mg (N = 87)) was 2.30% and the “Treatment-related AE Constipation, %” value ([5]; CPA 25 mg (N = 87)) was 3.45%. For the same molecule, the “Treatment-related AE Dyspnoea, %” value ([5]; CPA 25 mg (N = 87)) was 4.60%, the “Frequency and severity in subjects who continued to experience hot flashes or sweating” value [6] was “decreased” and the “Subjects with outbreaks of sweating” value ([6]; placebo 47%) was 24%. The “Subjects experiencing hot flashes” value ([6]; placebo 61%) was 33%.

Reference: patent US8288342B2, “Methods for treating vasomotor symptoms in castrated prostatic cancer patients with low dose cyproterone acetate” (priority 2008, dated 2012)
